Bridge positions count the residues as written; N and C are the ends. Peptide text beside a SMILES is read from it.
How the values were obtained:
Format in all cases: cell-based
hNaV1.2 = biological target: T1, hNaV1.2 (Homo sapiens, UniProt Q99250); experiment: Automated whole-cell patch-clamp (QPatch 16X), hNaV1.2; details: for IC50: HEK293 cells expressing hNaV1.2 + β1 subunit, QPatch 16X, holding −80 mV, step to 0 mV, peptide incubated 2 min, 0.1% BSA, mean, SEM and n (2-7)
T1 construct: host or cells: HEK293
T1 sequence (Q07699 19-218): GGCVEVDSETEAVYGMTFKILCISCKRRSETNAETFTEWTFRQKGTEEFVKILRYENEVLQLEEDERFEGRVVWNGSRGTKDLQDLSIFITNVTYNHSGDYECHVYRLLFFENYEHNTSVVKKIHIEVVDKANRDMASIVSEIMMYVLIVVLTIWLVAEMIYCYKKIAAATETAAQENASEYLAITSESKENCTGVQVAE
T1 sequence (Q99250 whole entry): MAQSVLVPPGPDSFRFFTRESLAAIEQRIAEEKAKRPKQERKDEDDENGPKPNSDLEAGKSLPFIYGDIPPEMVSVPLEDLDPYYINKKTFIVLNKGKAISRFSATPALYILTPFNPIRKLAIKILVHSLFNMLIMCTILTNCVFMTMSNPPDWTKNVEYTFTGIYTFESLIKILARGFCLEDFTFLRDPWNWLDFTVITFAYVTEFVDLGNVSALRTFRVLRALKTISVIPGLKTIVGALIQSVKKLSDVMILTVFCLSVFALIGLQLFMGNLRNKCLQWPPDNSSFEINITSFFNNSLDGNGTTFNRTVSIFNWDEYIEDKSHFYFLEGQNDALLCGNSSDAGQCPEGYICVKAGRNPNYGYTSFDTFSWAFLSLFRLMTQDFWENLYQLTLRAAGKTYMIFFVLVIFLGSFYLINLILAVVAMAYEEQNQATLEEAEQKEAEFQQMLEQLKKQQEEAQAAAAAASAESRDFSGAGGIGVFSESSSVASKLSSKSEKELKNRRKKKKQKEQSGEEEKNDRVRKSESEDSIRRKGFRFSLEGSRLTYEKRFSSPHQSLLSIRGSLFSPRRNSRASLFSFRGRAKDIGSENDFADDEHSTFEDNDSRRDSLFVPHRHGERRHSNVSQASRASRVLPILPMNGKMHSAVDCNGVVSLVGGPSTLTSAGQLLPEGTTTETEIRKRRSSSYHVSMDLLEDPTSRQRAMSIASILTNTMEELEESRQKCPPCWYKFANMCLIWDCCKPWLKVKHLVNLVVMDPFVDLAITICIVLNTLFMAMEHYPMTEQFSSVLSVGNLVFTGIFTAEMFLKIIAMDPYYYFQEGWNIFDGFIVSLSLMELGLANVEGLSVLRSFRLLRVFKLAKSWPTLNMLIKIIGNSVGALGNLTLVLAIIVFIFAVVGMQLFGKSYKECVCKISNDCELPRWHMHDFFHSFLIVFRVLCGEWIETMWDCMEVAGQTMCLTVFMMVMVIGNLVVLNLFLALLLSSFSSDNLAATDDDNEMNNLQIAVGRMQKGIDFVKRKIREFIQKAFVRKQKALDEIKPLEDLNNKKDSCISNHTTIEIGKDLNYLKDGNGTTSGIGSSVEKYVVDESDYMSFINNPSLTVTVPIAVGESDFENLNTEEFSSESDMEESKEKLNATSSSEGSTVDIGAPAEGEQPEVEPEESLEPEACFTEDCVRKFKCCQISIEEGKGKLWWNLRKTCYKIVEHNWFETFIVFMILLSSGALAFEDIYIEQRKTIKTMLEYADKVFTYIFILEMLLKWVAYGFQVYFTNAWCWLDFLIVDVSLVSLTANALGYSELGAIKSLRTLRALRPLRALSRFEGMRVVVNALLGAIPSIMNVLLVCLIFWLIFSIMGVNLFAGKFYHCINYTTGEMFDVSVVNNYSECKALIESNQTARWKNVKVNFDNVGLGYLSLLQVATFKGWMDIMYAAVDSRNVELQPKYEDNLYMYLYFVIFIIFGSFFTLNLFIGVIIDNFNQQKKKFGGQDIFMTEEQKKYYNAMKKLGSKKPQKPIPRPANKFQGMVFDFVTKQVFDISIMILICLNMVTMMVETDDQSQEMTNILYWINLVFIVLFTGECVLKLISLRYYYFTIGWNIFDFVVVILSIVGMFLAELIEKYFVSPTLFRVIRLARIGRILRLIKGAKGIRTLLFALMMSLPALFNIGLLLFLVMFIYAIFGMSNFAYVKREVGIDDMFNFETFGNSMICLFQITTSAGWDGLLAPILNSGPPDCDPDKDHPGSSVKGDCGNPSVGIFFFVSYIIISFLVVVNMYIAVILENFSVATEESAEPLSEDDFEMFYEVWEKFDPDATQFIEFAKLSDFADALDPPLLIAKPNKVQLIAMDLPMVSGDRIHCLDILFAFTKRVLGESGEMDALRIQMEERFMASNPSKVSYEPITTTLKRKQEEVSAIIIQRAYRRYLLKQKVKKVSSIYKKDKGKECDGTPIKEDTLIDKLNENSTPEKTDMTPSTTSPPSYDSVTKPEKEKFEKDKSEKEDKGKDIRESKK
Summary of the method: (§1)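 HEK293 cells stably expressing the channel (human subtypes with β1 subunit), held at −80 mV; 2 min peptide pre-incubation, then 20 ms steps to 0 mV after a 200 ms −120 mV conditioning pulse. Extracellular pH 7.3 with 20 mM TEA-Cl, CsF-based pipette solution, 0.1% BSA; IC50 from four-parameter Hill fit.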

hNaV1.3 = biological target: T2, hNaV1.3 (Homo sapiens, UniProt Q9NY46); experiment: Automated whole-cell patch-clamp (QPatch 16X), hNaV1.3; details: for inhibition at 3 µM: 3 µM peptide, QPatch, read-out: Inhibition (block) of hNaV1.3 at 3 µM; for IC50: HEK293 cells expressing hNaV1.3 + β1 subunit, QPatch 16X, holding −80 mV, step to 0 mV, peptide incubated 2 min, 0.1% BSA, mean, SEM and n (3-12)
T2 construct: host or cells: HEK293
T2 sequence (Q9NY46 whole entry): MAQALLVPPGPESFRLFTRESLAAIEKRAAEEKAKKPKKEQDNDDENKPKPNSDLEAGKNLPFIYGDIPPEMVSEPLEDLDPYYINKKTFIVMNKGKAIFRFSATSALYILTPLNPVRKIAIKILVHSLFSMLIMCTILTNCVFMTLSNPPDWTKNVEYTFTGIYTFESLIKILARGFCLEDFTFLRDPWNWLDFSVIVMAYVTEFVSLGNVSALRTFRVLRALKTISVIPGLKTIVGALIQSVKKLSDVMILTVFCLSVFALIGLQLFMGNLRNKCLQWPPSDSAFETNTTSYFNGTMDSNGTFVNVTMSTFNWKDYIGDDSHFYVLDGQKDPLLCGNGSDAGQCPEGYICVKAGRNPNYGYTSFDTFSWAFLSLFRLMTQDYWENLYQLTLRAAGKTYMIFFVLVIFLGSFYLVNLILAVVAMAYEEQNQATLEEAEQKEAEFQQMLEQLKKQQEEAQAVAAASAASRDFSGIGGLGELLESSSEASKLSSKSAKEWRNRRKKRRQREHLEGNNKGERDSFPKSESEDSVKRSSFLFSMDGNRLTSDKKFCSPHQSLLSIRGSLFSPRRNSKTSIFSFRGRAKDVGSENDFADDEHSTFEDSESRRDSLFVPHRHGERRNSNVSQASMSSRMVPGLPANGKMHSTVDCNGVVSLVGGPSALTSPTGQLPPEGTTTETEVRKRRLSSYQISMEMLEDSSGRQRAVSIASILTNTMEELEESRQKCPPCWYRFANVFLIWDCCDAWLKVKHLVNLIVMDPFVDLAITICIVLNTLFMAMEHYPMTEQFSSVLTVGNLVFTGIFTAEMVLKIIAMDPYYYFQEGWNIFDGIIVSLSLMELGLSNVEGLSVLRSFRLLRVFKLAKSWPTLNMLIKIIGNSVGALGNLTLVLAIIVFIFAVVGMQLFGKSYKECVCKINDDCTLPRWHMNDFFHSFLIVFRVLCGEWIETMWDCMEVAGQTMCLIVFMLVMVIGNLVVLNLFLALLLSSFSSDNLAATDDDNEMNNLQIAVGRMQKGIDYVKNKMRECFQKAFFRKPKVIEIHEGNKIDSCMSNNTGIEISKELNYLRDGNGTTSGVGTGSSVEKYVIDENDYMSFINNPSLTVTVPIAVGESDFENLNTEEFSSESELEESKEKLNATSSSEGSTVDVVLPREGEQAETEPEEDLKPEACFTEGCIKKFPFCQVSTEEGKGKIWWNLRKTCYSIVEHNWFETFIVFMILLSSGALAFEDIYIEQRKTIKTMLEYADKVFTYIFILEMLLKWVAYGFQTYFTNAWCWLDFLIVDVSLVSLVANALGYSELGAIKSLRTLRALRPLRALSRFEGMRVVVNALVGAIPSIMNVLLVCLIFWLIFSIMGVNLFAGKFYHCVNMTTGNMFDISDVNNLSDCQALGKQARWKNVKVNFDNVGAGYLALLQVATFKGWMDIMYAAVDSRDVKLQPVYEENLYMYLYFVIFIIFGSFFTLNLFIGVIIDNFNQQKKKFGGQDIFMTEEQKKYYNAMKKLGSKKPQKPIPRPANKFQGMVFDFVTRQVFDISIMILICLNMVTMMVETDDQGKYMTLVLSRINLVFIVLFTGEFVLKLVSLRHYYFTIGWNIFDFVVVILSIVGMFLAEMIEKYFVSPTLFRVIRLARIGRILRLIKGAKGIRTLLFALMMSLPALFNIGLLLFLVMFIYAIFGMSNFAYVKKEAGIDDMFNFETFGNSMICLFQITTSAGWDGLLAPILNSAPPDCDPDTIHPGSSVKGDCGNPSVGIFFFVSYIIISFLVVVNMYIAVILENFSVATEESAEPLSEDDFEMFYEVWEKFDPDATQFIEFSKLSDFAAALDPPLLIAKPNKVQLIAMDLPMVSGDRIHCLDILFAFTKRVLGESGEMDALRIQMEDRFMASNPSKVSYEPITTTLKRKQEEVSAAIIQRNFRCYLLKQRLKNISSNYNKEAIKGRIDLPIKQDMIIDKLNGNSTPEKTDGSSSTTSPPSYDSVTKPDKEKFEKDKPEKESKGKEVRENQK
T2 sequence (Q07699 19-218, further chain): as the sequence (Q07699 19-218) above
Summary of the method: as §1

hNaV1.7 = biological target: T3, hNaV1.7 (Homo sapiens, UniProt Q15858); experiment: Automated whole-cell patch-clamp (QPatch 16X), hNaV1.7; details: for IC50: HEK293 cells expressing hNaV1.7 + β1 subunit, QPatch 16X, holding −80 mV, step to 0 mV, peptide incubated 2 min, 0.1% BSA, mean, SEM and n (3-9)
T3 construct: host or cells: HEK293
Summary of the method: as §1

Row | Structure (SMILES) | inhibition at 3 µM (hNaV1.2; 3 µM peptide, QPatch, partial inhibition) [%] | IC50 (hNaV1.2) [nM] | inhibition at 3 µM (hNaV1.3) [%] | IC50 (hNaV1.3) [nM] | inhibition at 3 µM (hNaV1.7; 3 µM peptide, QPatch) [%] | IC50 (hNaV1.7) [nM]
1 | CC(C)C[C@H](NC(=O)[C@H](CC(=O)O)NC(=O)[C@H](Cc1ccc(O)cc1)NC(=O)[C@H](CCCNC(=N)N)NC(=O)[C@@H]1CSSC[C@@H]2NC(=O)[C@H](CCCCN)NC(=O)[C@H](CC(N)=O)NC(=O)[C@H](CC(N)=O)NC(=O)[C@H](CC(N)=O)NC(=O)[C@@H]3CCCN3C(=O)[C@H](CC(=O)O)NC(=O)[C@@H]3CSSC[C@H](NC(=O)[C@H](C(C)C)NC(=O)[C@H](Cc4ccc(O)cc4)NC(=O)CNC(=O)[C@H](CCC(=O)O)NC(=O)[C@H](CSSC[C@H](NC(=O)[C@H](CC(=O)O)NC(=O)CN)C(=O)N[C@@H](CC(C)C)C(=O)NCC(=O)N[C@@H](Cc4c[nH]c5ccccc45)C(=O)N[C@@H](Cc4ccccc4)C(=O)N[C@@H](CO)C(=O)NCC(=O)N3)NC2=O)C(=O)N[C@@H](Cc2c[nH]cn2)C(=O)N[C@@H](CCCNC(=N)N)C(=O)N[C@@H](CCCCN)C(=O)N[C@@H](Cc2ccc(O)cc2)C(=O)N2CCC[C@H]2C(=O)N[C@@H](Cc2c[nH]c3ccccc23)C(=O)N1)C(=O)O [W24R] | ~65 | 423 | ~75 | 1190 | ~50 | > 3000
2 | CC(C)C[C@H](NC(=O)[C@H](CC(=O)O)NC(=O)[C@H](Cc1ccc(O)cc1)NC(=O)[C@H](CCCNC(=N)N)NC(=O)[C@@H]1CSSC[C@@H]2NC(=O)[C@H](CCCCN)NC(=O)[C@H](CC(N)=O)NC(=O)[C@H](CC(N)=O)NC(=O)[C@H](CC(N)=O)NC(=O)[C@@H]3CCCN3C(=O)[C@H](CC(=O)O)NC(=O)[C@@H]3CSSC[C@H](NC(=O)[C@H](C(C)C)NC(=O)[C@H](Cc4ccc(O)cc4)NC(=O)CNC(=O)[C@H](CCC(=O)O)NC(=O)[C@H](CSSC[C@H](NC(=O)[C@H](CC(=O)O)NC(=O)CN)C(=O)N[C@@H](CC(C)C)C(=O)NCC(=O)N[C@@H](Cc4c[nH]c5ccccc45)C(=O)N[C@@H](Cc4ccccc4)C(=O)N[C@@H](CO)C(=O)NCC(=O)N3)NC2=O)C(=O)N[C@@H](Cc2c[nH]cn2)C(=O)N[C@@H](Cc2c[nH]c3ccccc23)C(=O)N[C@@H](CCCCN)C(=O)N[C@@H](Cc2ccc(O)cc2)C(=O)N2CCC[C@H]2C(=O)N[C@@H](CCCCN)C(=O)N1)C(=O)O [W28K] (H-GDCLGWFSGCDPNNNKCCEGYVCHWKYPKCRYDL-OH; disulfide 3-18, 10-23, 17-30 (inferred); N-terminus and C-terminus assumed) |  | > 3000 |  | > 3000 |  | > 3000
3 | CC(C)C[C@H](NC(=O)[C@H](CC(=O)O)NC(=O)[C@H](Cc1c[nH]c2ccccc12)NC(=O)[C@H](CCCNC(=N)N)NC(=O)[C@@H]1CSSC[C@@H]2NC(=O)[C@H](CCCCN)NC(=O)[C@H](CC(N)=O)NC(=O)[C@H](CC(N)=O)NC(=O)[C@H](CC(N)=O)NC(=O)[C@@H]3CCCN3C(=O)[C@H](CC(=O)O)NC(=O)[C@@H]3CSSC[C@H](NC(=O)[C@H](C(C)C)NC(=O)[C@H](Cc4ccc(O)cc4)NC(=O)CNC(=O)[C@H](CCC(=O)O)NC(=O)[C@H](CSSC[C@H](NC(=O)[C@H](CC(=O)O)NC(=O)CN)C(=O)N[C@@H](CC(C)C)C(=O)NCC(=O)N[C@@H](Cc4c[nH]c5ccccc45)C(=O)N[C@@H](Cc4ccccc4)C(=O)N[C@@H](CO)C(=O)NCC(=O)N3)NC2=O)C(=O)N[C@@H](Cc2c[nH]cn2)C(=O)N[C@@H](Cc2c[nH]c3ccccc23)C(=O)N[C@@H](CCCCN)C(=O)N[C@@H](Cc2ccc(O)cc2)C(=O)N2CCC[C@H]2C(=O)N[C@@H](Cc2c[nH]c3ccccc23)C(=O)N1)C(=O)O [Y31W] |  | 89 |  | 160 |  | 80
4 | CC(C)C[C@H](NC(=O)[C@H](CC(=O)O)NC(=O)[C@H](Cc1ccc(O)cc1)NC(=O)[C@H](CCCNC(=N)N)NC(=O)[C@@H]1CSSC[C@@H]2NC(=O)[C@H](CCCCN)NC(=O)[C@H](CC(N)=O)NC(=O)[C@H](CC(N)=O)NC(=O)[C@H](CC(N)=O)NC(=O)[C@@H]3CCCN3C(=O)[C@H](CC(=O)O)NC(=O)[C@@H]3CSSC[C@H](NC(=O)[C@H](C(C)C)NC(=O)[C@H](Cc4ccc(O)cc4)NC(=O)CNC(=O)[C@H](Cc4ccc(O)cc4)NC(=O)[C@H](CSSC[C@H](NC(=O)[C@H](CC(=O)O)NC(=O)CN)C(=O)N[C@@H](CC(C)C)C(=O)NCC(=O)N[C@@H](Cc4c[nH]c5ccccc45)C(=O)N[C@@H](Cc4ccccc4)C(=O)N[C@@H](CO)C(=O)NCC(=O)N3)NC2=O)C(=O)N[C@@H](Cc2c[nH]cn2)C(=O)N[C@@H](Cc2c[nH]c3ccccc23)C(=O)N[C@@H](CCCCN)C(=O)N[C@@H](Cc2ccc(O)cc2)C(=O)N2CCC[C@H]2C(=O)N[C@@H](Cc2c[nH]c3ccccc23)C(=O)N1)C(=O)O [E18Y] |  | 203 |  | 300 |  | 179
5 | CC(C)C[C@H](NC(=O)[C@H](CC(=O)O)NC(=O)[C@H](Cc1ccc(O)cc1)NC(=O)[C@H](CCCNC(=N)N)NC(=O)[C@@H]1CSSC[C@@H]2NC(=O)[C@H](CCCCN)NC(=O)[C@H](CC(N)=O)NC(=O)[C@H](CC(N)=O)NC(=O)[C@H](CC(N)=O)NC(=O)[C@@H]3CCCN3C(=O)[C@H](CC(=O)O)NC(=O)[C@@H]3CSSC[C@H](NC(=O)[C@H](C(C)C)NC(=O)[C@H](Cc4ccc(O)cc4)NC(=O)CNC(=O)[C@H](CCC(=O)O)NC(=O)[C@H](CSSC[C@H](NC(=O)[C@H](CC(=O)O)NC(=O)CN)C(=O)N[C@@H](CC(C)C)C(=O)NCC(=O)N[C@@H](Cc4c[nH]c5ccccc45)C(=O)N[C@@H](Cc4ccccc4)C(=O)N[C@@H](CO)C(=O)NCC(=O)N3)NC2=O)C(=O)N2CCC[C@H]2C(=O)N[C@@H](Cc2c[nH]c3ccccc23)C(=O)N[C@@H](CCCCN)C(=O)N[C@@H](Cc2ccc(O)cc2)C(=O)N2CCC[C@H]2C(=O)N[C@@H](Cc2c[nH]c3ccccc23)C(=O)N1)C(=O)O [H23P] (H-GDCLGWFSGCDPNNNKCCEGYVCPWKYPWCRYDL-OH; disulfide 3-18, 10-23, 17-30 (inferred); N-terminus and C-terminus assumed) |  | > 3000 |  | > 3000 |  | > 3000
6 | CC(C)C[C@H](NC(=O)[C@H](CC(=O)O)NC(=O)[C@H](Cc1ccc(O)cc1)NC(=O)[C@H](CCCNC(=N)N)NC(=O)[C@@H]1CSSC[C@@H]2NC(=O)[C@H](CCCCN)NC(=O)[C@H](C)NC(=O)[C@H](CC(N)=O)NC(=O)[C@H](CC(N)=O)NC(=O)[C@@H]3CCCN3C(=O)[C@H](CC(=O)O)NC(=O)[C@@H]3CSSC[C@H](NC(=O)[C@H](C(C)C)NC(=O)[C@H](Cc4ccc(O)cc4)NC(=O)CNC(=O)[C@H](CCC(=O)O)NC(=O)[C@H](CSSC[C@H](NC(=O)[C@H](CC(=O)O)NC(=O)CN)C(=O)N[C@@H](CC(C)C)C(=O)NCC(=O)N[C@@H](Cc4c[nH]c5ccccc45)C(=O)N[C@@H](Cc4ccccc4)C(=O)N[C@@H](CO)C(=O)NCC(=O)N3)NC2=O)C(=O)N[C@@H](Cc2c[nH]cn2)C(=O)N[C@@H](Cc2c[nH]c3ccccc23)C(=O)N[C@@H](CCCCN)C(=O)N[C@@H](Cc2ccc(O)cc2)C(=O)N2CCC[C@H]2C(=O)N[C@@H](Cc2c[nH]c3ccccc23)C(=O)N1)C(=O)O [N14A] |  | 224 |  | 784 |  | 252
7 | CC(C)C[C@H](NC(=O)[C@H](CC(=O)O)NC(=O)[C@H](Cc1ccc(O)cc1)NC(=O)[C@H](CCCNC(=N)N)NC(=O)[C@@H]1CSSC[C@@H]2NC(=O)[C@H](CCCCN)NC(=O)[C@H](CC(N)=O)NC(=O)[C@H](CC(N)=O)NC(=O)[C@H](CC(N)=O)NC(=O)[C@@H]3CCCN3C(=O)[C@H](CC(=O)O)NC(=O)[C@@H]3CSSC[C@H](NC(=O)[C@H](C(C)C)NC(=O)[C@H](Cc4ccc(O)cc4)NC(=O)CNC(=O)[C@H](CCC(=O)O)NC(=O)[C@H](CSSC[C@H](NC(=O)[C@H](CC(=O)O)NC(=O)CN)C(=O)N[C@@H](CC(C)C)C(=O)NCC(=O)N[C@@H](Cc4c[nH]c5ccccc45)C(=O)N[C@@H](Cc4ccccc4)C(=O)N[C@@H](CO)C(=O)NCC(=O)N3)NC2=O)C(=O)N[C@@H](Cc2c[nH]cn2)C(=O)N[C@@H](Cc2c[nH]c3ccccc23)C(=O)N[C@@H](CCCCN)C(=O)N[C@@H](Cc2ccc(O)cc2)C(=O)N2CCC[C@H]2C(=O)N[C@@H](Cc2ccccc2)C(=O)N1)C(=O)O [W28F] |  | > 3000 |  | > 3000 |  | 544
8 | CC(C)C[C@H](NC(=O)[C@H](CC(=O)O)NC(=O)[C@H](Cc1ccc(O)cc1)NC(=O)[C@H](CCCNC(=N)N)NC(=O)[C@@H]1CSSC[C@@H]2NC(=O)[C@H](CCCCN)NC(=O)[C@H](CC(=O)O)NC(=O)[C@H](CC(N)=O)NC(=O)[C@H](CC(N)=O)NC(=O)[C@@H]3CCCN3C(=O)[C@H](CC(=O)O)NC(=O)[C@@H]3CSSC[C@H](NC(=O)[C@H](C(C)C)NC(=O)[C@H](Cc4ccc(O)cc4)NC(=O)CNC(=O)[C@H](CCC(=O)O)NC(=O)[C@H](CSSC[C@H](NC(=O)[C@H](CC(=O)O)NC(=O)CN)C(=O)N[C@@H](CC(C)C)C(=O)NCC(=O)N[C@@H](Cc4c[nH]c5ccccc45)C(=O)N[C@@H](Cc4ccccc4)C(=O)N[C@@H](CO)C(=O)NCC(=O)N3)NC2=O)C(=O)N[C@@H](Cc2c[nH]cn2)C(=O)N[C@@H](Cc2c[nH]c3ccccc23)C(=O)N[C@@H](CCCCN)C(=O)N[C@@H](Cc2ccc(O)cc2)C(=O)N[C@@H](CCCNC(=N)N)C(=O)N[C@@H](Cc2c[nH]c3ccccc23)C(=O)N1)C(=O)O [N14D/P27R] (H-GDCLGWFSGCDPNNDKCCEGYVCHWKYRWCRYDL-OH; disulfide 3-18, 10-23, 17-30) |  | 87 | ~40 | > 3000 |  | 57

Reference: publication PMC10682951, “Structure-function and rational design of a spider toxin Ssp1a at human voltage-gated sodium channel subtypes” (Frontiers in Pharmacology, 2023)
